# According to US11673876B2, “Substituted aminobenzyl heteroaryl compounds as EGFR and/or PI3K inhibitors” (Mekanistic Therapeutics LLC, priority 2020, dated 2023):
# Tests used:
# EGFR = EGFR (Homo sapiens (Human), UniProt P00533); experiment: Z'-LYTE / Adapta kinase assay, EGFR; type: biochemical; conditions: for inhibition at 0.1 µM: read-out: EGFR % Inh. @ 100 nM
# How it was run: (§1)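 Z'-LYTE FRET-peptide phosphorylation read as coumarin/fluorescein emission ratio (400 nm excitation); Adapta immunoassay detects ADP formation. 60-min kinase reaction, 60-min development, room temperature.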
# DNA-PK = DNA-PK (Homo sapiens (Human), UniProt P78527); experiment: Z'-LYTE / Adapta kinase assay, DNA-PK; type: biochemical; conditions: for inhibition at 0.1 µM: read-out: DNA-PK % Inh. @ 100 nM
# How it was run: as §1
# [1] = Metabolic stability in human liver microsomes; type: in vitro ADME
# Method: Working solution: 5 μL of compound and control stock solution (10 mM in dimethyl sulfoxide (DMSO)) were diluted with 495 μL of acetonitrile (ACN) (intermediate solution concentration: 100 μM, 99% ACN)
# NADPH Cofactor Preparation: NADPH powder: β-Nicotinamide adenine dinucleotide phosphate reduced form, tetrasodium salt; NADPH·4Na. The appropriate amount of NADPH powder was weighed and diluted into a 10 mM MgCl2 solution (working solution concentration: 10 unit/mL; final concentration in reaction system: 1 unit/mL)
# Liver Microsomes Preparation: The appropriate concentrations of microsome working solutions were prepared in 100 mM potassium phosphate buffer. Cold (4° C.) acetonitrile (ACN) containing 200 ng/mL tolbutamide and 200 ng/mL labetalol as internal standards (1S) was used as the stop solution
# Assay Procedure: Pre-warm empty ‘Incubation’ plates T60 and NCF60 for 10 minutes. Dilute liver microsomes to 0.56 mg/mL in 100 mM phosphate buffer. Transfer 445 μL microsome working solutions (0.56 mg/mL) into pre-warmed ‘Incubation’ plates T60 and NCF60, Then pre-incubate ‘Incubation’ plates T60 and NCF60 for 10 min at 37° C. with constant shaking. Transfer 54 μL liver microsomes to blank plate, then add 6 μL NAPDH cofactor to blank plate, and then add 180 μL quenching solution to blank plate. Add 5 μL compound working solution (100 μM) into ‘incubation’ plates (T60 and NCF60) containing microsomes and mix 3 times thoroughly.
# For the NCF60 plate, add 50 μL of buffer and mix 3 times thoroughly. Start timing; plate will be incubated at 37° C. for 60 min while shaking. In ‘Quenching’ plate T0, add 180 μL quenching solution and 6 μL NAPDH cofactor. Ensure the plate is chilled to prevent evaporation. For the T60 plate, mix 3 times thoroughly, and immediately remove 54 μL mixture for the 0-min time point to ‘Quenching’ plate. Then add 44 μL NAPDH cofactor to incubation plate (T60). Start timing; plate will be incubated at 37° C. for 60 min while shaking. At 5, 10, 20, 30, and 60 min, add 180 μL quenching solution to ‘Quenching’ plates, mix once, and serially transfer 60 μL sample from T60 plate per time point to ‘Quenching’ plates. For NCF60: mix once, and transfer 60 μL sample from the NCF60 incubation to ‘Quenching’ plate containing quenching solution at the 60-min time point. All sampling plates are shaken for 10 min, then centrifuged at 4000 rpm for 20 minutes at 4° C. Transfer 80 μL supernatant into 240 μL HPLC water, and mix by plate shaker for 10 min. Each bioanalysis plate was sealed and shaken for 10 minutes prior to LC-MS/MS analysis.
# The equation of first order kinetics was used to calculate T½ and CLint(mic) (μL/min/mg). Equation of first order kinetics: […]
# The biological stability of the compounds of the disclosure can be measured by determining its ½ life in the presence microsomes. Presented in Table 5, is the ½ life of selected compounds of the disclosure in the presence of human liver microsomes (HLM) or mouse liver microsomes (MLM) as described above. In Table 5, ½ life is presented as “++++” (value is greater than 60 minutes), “+++” (value is greater than 30 minutes and less than or equal to 60 minutes), “++” (value is greater than 15 minutes and less than or equal to 30 minutes) and “+” (value is 15 minutes or less).
# EGFR, sequence (P00533 25-1210): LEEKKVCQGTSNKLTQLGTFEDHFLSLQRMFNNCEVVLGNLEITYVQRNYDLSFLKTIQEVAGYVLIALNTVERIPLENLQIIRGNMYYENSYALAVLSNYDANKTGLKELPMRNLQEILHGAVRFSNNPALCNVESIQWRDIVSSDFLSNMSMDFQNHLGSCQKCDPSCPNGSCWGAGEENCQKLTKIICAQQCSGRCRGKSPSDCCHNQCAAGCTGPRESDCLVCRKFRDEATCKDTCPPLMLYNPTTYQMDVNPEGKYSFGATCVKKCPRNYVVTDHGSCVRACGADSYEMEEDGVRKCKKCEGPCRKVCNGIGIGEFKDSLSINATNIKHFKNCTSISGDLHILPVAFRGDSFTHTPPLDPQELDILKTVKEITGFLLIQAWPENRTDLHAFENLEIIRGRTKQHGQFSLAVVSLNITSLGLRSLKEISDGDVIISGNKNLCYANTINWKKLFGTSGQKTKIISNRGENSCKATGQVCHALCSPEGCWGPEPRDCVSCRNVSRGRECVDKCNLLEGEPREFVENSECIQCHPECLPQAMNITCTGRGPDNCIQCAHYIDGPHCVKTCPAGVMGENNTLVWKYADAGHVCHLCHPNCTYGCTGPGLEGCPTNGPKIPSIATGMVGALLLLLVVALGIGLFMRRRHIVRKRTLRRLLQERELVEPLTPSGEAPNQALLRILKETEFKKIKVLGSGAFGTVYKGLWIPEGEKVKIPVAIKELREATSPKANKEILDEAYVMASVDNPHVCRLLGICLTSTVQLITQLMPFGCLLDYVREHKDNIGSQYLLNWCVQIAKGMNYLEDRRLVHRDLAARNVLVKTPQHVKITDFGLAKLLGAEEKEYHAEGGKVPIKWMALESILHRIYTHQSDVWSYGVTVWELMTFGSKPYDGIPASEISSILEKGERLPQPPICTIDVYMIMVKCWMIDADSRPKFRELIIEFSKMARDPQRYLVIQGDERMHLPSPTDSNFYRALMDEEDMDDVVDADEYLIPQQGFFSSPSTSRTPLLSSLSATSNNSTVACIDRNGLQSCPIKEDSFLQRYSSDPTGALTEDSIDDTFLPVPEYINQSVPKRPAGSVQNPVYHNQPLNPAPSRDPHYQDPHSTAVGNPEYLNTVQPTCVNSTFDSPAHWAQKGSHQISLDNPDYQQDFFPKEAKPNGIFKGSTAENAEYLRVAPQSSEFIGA
IC50 (EGFR) [nM],inhibition at 0.1 µM (EGFR) [%],inhibition at 0.1 µM (DNA-PK) [%],½ life minutes (HLM) [1],EGFR % Inh. @ 100 nM (EGFR; 100 nM),DNA-PK % Inh. @ 100 nM (DNA-PK; 100 nM),IC50 (DNA-PK) [nM],Compound
20 to 200,10 to 80,80 to 90,++++ (value is greater than 60 minutes),–,–,–,"C[C@@H](Nc1ncnc2ccc(-c3cnc(Cl)c(NS(C)(=O)=O)c3)cc12)c1ccc(F)cc1 [Compound 111R, N-(2-chloro-5-(4-((1R-(4-fluorophenyl)ethyl)amino)quinazolin-6-yl)pyridin-3-yl)methanesulfonamide]"
–,–,–,++++ (value is greater than 60 minutes),**** (value is greater than 90%),**** (value is greater than 90%),–,"CS(=O)(=O)Nc1cncc(-c2ccc3ncnc(NCc4ccccc4)c3c2)c1 [Comparative Compound 3, reference compound]"
2 to 20,80 to 90,10 to 80,++++ (value is greater than 60 minutes),–,–,20 to 200,"CC(Nc1c(C#N)cnc2ccc(-c3cnc(N)nc3)cc12)c1ccccc1 (stereo not drawn) [Compound 53, 6-(2-aminopyrimidin-5-yl)-4-(1-phenylethylamino) quinoline-3-carbonitrile]"
> 200,< 10,> 90,++++ (value is greater than 60 minutes),–,–,< 2,"C[C@H](Nc1ncnc2ccc(-c3cnc(Cl)c(NS(C)(=O)=O)c3)cc12)c1ccccc1 [Compound 2S, N-(2-chloro-5-(4-((1S-phenylethyl)amino)quinazolin-6-yl)pyridin-3-yl)methanesulfonamide]"
20 to 200,10 to 80,> 90,++++ (value is greater than 60 minutes),–,–,< 2,"CS(=O)(=O)Nc1cc(-c2ccc3ncnc(NCc4ccccc4)c3c2)cnc1Cl [Comparative Compound 1, N-[5-[4-(benzylamino)quinazolin-6-yl]-2-chloro-3-pyridyl]methanesulfonamide, reference compound]"

Compound,IC50 (EGFR) [nM],inhibition at 0.1 µM (EGFR) [%],inhibition at 0.1 µM (DNA-PK) [%],½ life minutes (HLM) [1],EGFR % Inh. @ 100 nM (EGFR; 100 nM),DNA-PK % Inh. @ 100 nM (DNA-PK; 100 nM),IC50 (DNA-PK) [nM]
"CC(Nc1c(C#N)cnc2ccc(-c3cnc4[nH]ncc4c3)cc12)c1ccccc1 (stereo not drawn) [Compound 54, 4-(1-phenylethylamino)-6-(1H-pyrazolo[3,4-b]pyridin-5-yl)quinoline-3-carbonitrile]",2 to 20,> 90,80 to 90,+++ (value is greater than 30 minutes and less than or equal to 60 minutes),–,–,2 to 20
"C[C@@H](Nc1c(C#N)cnc2ccc(-c3cnc(N)nc3)cc12)c1ccccc1 [Compound 53R, (R)-6-(2-aminopyrimidin-5-yl)-4-((1-phenylethyl)amino)quinoline-3-carbonitrile]",2 to 20,> 90,10 to 80,+++ (value is greater than 30 minutes and less than or equal to 60 minutes),–,–,20 to 200
"C[C@@H](Nc1ncnc2ccc(-c3cnc(Cl)c(NS(C)(=O)=O)c3)cc12)c1ccccc1 [Compound 2R, N-(2-chloro-5-(4-((1R-phenylethyl)amino)quinazolin-6-yl)pyridin-3-yl)methanesulfonamide]",2 to 20,80 to 90,> 90,++++ (value is greater than 60 minutes),–,–,2 to 20
"CS(=O)(=O)Nc1cc(-c2ccc3ncnc(Nc4ccc(F)c(Cl)c4)c3c2)cnc1Cl [Comparative Compound 2, reference compound]",2 to 20,> 90,> 90,++++ (value is greater than 60 minutes),–,–,< 2
